Assay results from patent US4476328A, “Process for producing 3,3,3-trifluoropropyl substituted phenol” (Kureha Kagaku Kogyo Kabushiki Kaisha, priority 1980, dated 1984).

Test: electrical properties (dielectric constant, dielectric loss, volume resistivity)
Format: physicochemical
[1] = Table 5, Example 6, temperature not given

Substance: n-octyl-( 3,3,3-trifluoropropyl)benzene [n-octyl(3,3,3-trifluoropropyl)benzene]
- Dielectric constant [1]: 4.18
- Dielectric loss (tanδ) [1]: 0.095%
- Volume resistivity [1]: 1.08 × 10^14 Ω·cm
- Dielectric constant (Table 6, Example 7, at 20° C.): 3.89
- Dielectric loss (tanδ) (Table 6, Example 7, at 20° C.): 0.015%
- Volume resistivity (Table 6, Example 7, at 20° C.): 8.79 × 10^14 Ω·cm
